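Step 1: Grow cells in 96-well plates. Step 2: Expose to compound for 48 hours at 5 concentrations. Step 3: Interpolate endpoints linearly; if unreached, use highest concentration. The concentration for 50% growth inhibition is given as GI50. The concentration for full growth arrest is given as TGI.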
Assays:
Test in all cases: DTP human tumour cell line panel, 48 h
[1] = tested on: SK-MEL-5 melanoma
[2] = tested on: NCI/ADR-RES ovarian
[3] = tested on: CAKI-1 renal
[4] = tested on: NCI-H522 lung
[5] = tested on: EKVX NSCLC
[6] = tested on: NCI-H460 lung
[7] = tested on: TK-10 renal
[8] = tested on: COLO 205 colon
[9] = tested on: HOP-62 NSCLC
[10] = tested on: UACC-257 melanoma
[11] = tested on: MCF7 breast
[12] = tested on: IGROV1 ovarian
[13] = tested on: ACHN renal
[14] = tested on: HOP-92 NSCLC
[15] = tested on: A498 renal
[16] = tested on: SNB-19 CNS
[17] = tested on: RXF 393 renal
[18] = tested on: U251 CNS
[19] = tested on: MDA-MB-435
[20] = tested on: UO-31 renal
[21] = tested on: NCI-H23 lung
[22] = tested on: HCT-116 colon
[23] = tested on: BT-549 breast
[24] = tested on: UACC-62 melanoma
[25] = tested on: SR leukemia
[26] = tested on: HCC-2998 colon
[27] = tested on: OVCAR-3 ovarian
[28] = tested on: RPMI-8226 leukemia
[29] = tested on: MOLT-4 leukemia
[30] = tested on: SK-MEL-2 melanoma
[31] = tested on: SN12C renal
[32] = tested on: LOX IMVI melanoma
[33] = tested on: SF-268 CNS
[34] = tested on: OVCAR-8 ovarian
[35] = tested on: HS 578T breast
[36] = tested on: KM12 colon
[37] = tested on: K-562 leukemia
[38] = tested on: T-47D breast
[39] = tested on: 786-0 renal
[40] = tested on: HCT-15 colon
[41] = tested on: MALME-3M melanoma
[42] = tested on: SK-OV-3 ovarian
[43] = tested on: HT29 colon
[44] = tested on: SW-620 colon
[45] = tested on: HL-60(TB) leukemia
[46] = tested on: OVCAR-4 ovarian
[47] = tested on: CCRF-CEM leukemia
[48] = tested on: SF-295 CNS
[49] = tested on: SK-MEL-28 melanoma
[50] = tested on: OVCAR-5 ovarian
[51] = tested on: MDA-MB-231 breast
[52] = tested on: A549 NSCLC
[53] = tested on: PC-3 prostate
[54] = tested on: M14 melanoma
[55] = tested on: SNB-75 CNS
[56] = tested on: DU-145 prostate
[57] = tested on: NCI-H226 lung
[58] = tested on: SF-539 CNS

Structure (SMILES): COc1ccc(C(=O)Cn2c(C(=O)c3ccc(Cl)cc3)nc3ccccc32)cc1
- GI50 [1]: 5.95 µM
- TGI [1]: > 100 µM
- GI50 [2]: 5.15 µM
- TGI [2]: > 37.4 µM
- GI50 [3]: > 100 µM
- TGI [3]: > 100 µM
- GI50 [4]: 10.3 µM
- TGI [4]: > 100 µM
- GI50 [5]: > 42.9 µM
- TGI [5]: > 100 µM
- GI50 [6]: 25.2 µM
- TGI [6]: > 100 µM
- GI50 [7]: > 62.9 µM
- TGI [7]: > 100 µM
- GI50 [8]: 37.5 µM
- TGI [8]: > 100 µM
- TGI [9]: > 34.6 µM
- GI50 [10]: > 100 µM
- TGI [10]: > 100 µM
- GI50 [11]: 3 µM
- TGI [11]: > 100 µM
- GI50 [12]: 25.7 µM
- TGI [12]: > 100 µM
- GI50 [13]: 22.9 µM
- TGI [13]: > 100 µM
- GI50 [14]: > 100 µM
- TGI [14]: > 100 µM
- GI50 [15]: 14.3 µM
- TGI [15]: > 100 µM
- GI50 [16]: 46.5 µM
- TGI [16]: > 100 µM
- GI50 [17]: 3.62 µM
- TGI [17]: 20.5 µM
- GI50 [18]: 19.4 µM
- TGI [18]: > 100 µM
- GI50 [19]: 2.23 µM
- TGI [19]: > 23.2 µM
- GI50 [20]: > 51.2 µM
- TGI [20]: > 100 µM
- GI50 [21]: > 57.9 µM
- TGI [21]: > 100 µM
- GI50 [22]: 2.56 µM
- TGI [22]: > 25 µM
- GI50 [23]: > 38.7 µM
- TGI [23]: > 100 µM
- GI50 [24]: > 28.4 µM
- TGI [24]: > 100 µM
- GI50 [25]: 2.2 µM
- TGI [25]: > 22.4 µM
- GI50 [26]: 6.55 µM
- TGI [26]: > 100 µM
- GI50 [27]: > 20.3 µM
- TGI [27]: > 77.6 µM
- GI50 [28]: 1.75 µM
- TGI [28]: > 77.8 µM
- GI50 [29]: 3.83 µM
- TGI [29]: > 100 µM
- GI50 [30]: > 32.7 µM
- TGI [30]: > 100 µM
- GI50 [31]: 97.8 µM
- TGI [31]: > 100 µM
- GI50 [32]: 17.5 µM
- TGI [32]: > 100 µM
- GI50 [33]: > 24.4 µM
- TGI [33]: > 100 µM
- GI50 [34]: > 100 µM
- TGI [34]: > 100 µM
- GI50 [35]: 3.29 µM
- TGI [35]: > 23.7 µM
- GI50 [36]: 4.18 µM
- TGI [36]: > 100 µM
- GI50 [37]: 3.33 µM
- TGI [37]: > 100 µM
- GI50 [38]: > 38.9 µM
- TGI [38]: > 100 µM
- GI50 [39]: 13.2 µM
- TGI [39]: > 27.3 µM
- GI50 [40]: 3.88 µM
- TGI [40]: > 100 µM
- GI50 [41]: > 56.3 µM
- TGI [41]: > 100 µM
- GI50 [42]: 23.6 µM
- TGI [42]: > 100 µM
- GI50 [43]: 7.58 µM
- TGI [43]: > 100 µM
- GI50 [44]: 4.4 µM
- TGI [44]: > 100 µM
- GI50 [45]: 3.11 µM
- TGI [45]: > 53.3 µM
- GI50 [46]: > 84.1 µM
- TGI [46]: > 100 µM
- GI50 [47]: 3.02 µM
- TGI [47]: > 100 µM
- GI50 [48]: 22.8 µM
- TGI [48]: > 100 µM
- GI50 [49]: > 22.4 µM
- TGI [49]: > 100 µM
- GI50 [50]: > 66.3 µM
- TGI [50]: > 100 µM
- GI50 [51]: 24.8 µM
- TGI [51]: > 100 µM
- GI50 [52]: 29.8 µM
- TGI [52]: > 100 µM
- GI50 [53]: 21.2 µM
- TGI [53]: > 100 µM
- GI50 [54]: 3.69 µM
- TGI [54]: > 39.3 µM
- GI50 [55]: 20.9 µM
- TGI [55]: > 100 µM
- GI50 [56]: > 100 µM
- TGI [56]: > 100 µM
- GI50 [57]: > 100 µM
- TGI [57]: > 100 µM
- GI50 [58]: 99.3 µM
- TGI [58]: > 100 µM
